Source: patent US20170368054A1, “Treatment of Glaucoma Using Laquinimod” (Teva Pharmaceutical Industries, Ltd., priority 2013, published 2017)

Tests used:
[1] = tested on: Th1 (T helper 1 cell) to Th2 (T helper 2 cell) shift; conditions: animal studies (Yang, 2004; Brück, 2011); cited from earlier work
[2] = tested on: genes related to antigen presentation and corresponding inflammatory pathways; conditions: mainly via the NFkB pathway (Gurevich, 2010); cited from earlier work
[3] = tested on: rat model of chronic ocular hypertension (OHT)/glaucoma; assay: Intraocular pressure (IOP) measurement, Tono-Pen Vet tonometer, rat OHT model; assay type: in vivo, Brown Norway rats (Rattus norvegicus); conditions: average of 5 weekly post-HSI measurements, groups matched for Mean ΔIOP
Experimental: For each IOP measurement time-point following the 2nd HSI, the IOP elevation was calculated as the difference between the IOP in the left eye with OHT and that in the non-OHT right eye (ΔIOP). The ΔIOP for the 5 weekly post-HSI IOP measurements were averaged and constituted the Mean ΔIOP for each animal. […] Other animals were removed from the study. Baseline IOP measurements were taken before the initial dose administration. After application of topical anesthesia (0.5% Proparacaine HCl Ophthalmic Solution), IOP was measured on conscious rats on both eyes using a Tono-Pen Vet tonometer (Reichert, Inc.; Depew, N.Y.). Ten (10) IOP readings are recorded from each eye and averaged. IOP measurements were taken around the same time (e.g., between 10 a.m. and 2 p.m.) across measurement time-points to minimize the circadian variability of IOP. IOP measurements were taken once weekly starting one week after the second HSI until euthanasia (a total of 5 measurements). After application of topical anesthesia (0.5% Proparacaine HCl Ophthalmic Solution), IOP was measured on conscious rats on both eyes using a Tono-Pen Vet tonometer (Reichert, Inc.; Depew, N.Y.). For each time-point, ten (10) IOP readings were recorded from each eye and averaged. IOP measurements were taken around the same time (e.g., between 10 a.m. and 2 p.m.) across measurement time-points to minimize the circadian variability of IOP. The IOP measurements were evaluated as follows: For each time-point following the HSI, the IOP elevation was calculated as the difference between the level in the left eye with OHT and that in the normal right eye (ΔIOP). The ΔIOP of the 5-weekly post-HSI IOP measurements were averaged and constitute the Mean ΔIOP for each animal. For each group, ten (10) animals with a sustained IOP elevation in the OHT eye were selected from a larger pool and groups are matched for the Mean ΔIOP. Other animals were removed from the study and euthanized. […] For each time-point following the HSI, the IOP elevation was calculated as the difference between the level in the left eye with OHT and that in the normal right eye (ΔIOP). The ΔIOP of the 5-weekly post-HSI IOP measurements were averaged and constitute the Mean ΔIOP for each animal. For each group, ten (10) animals with a sustained IOP elevation in the OHT eye were selected from a larger pool and groups were matched for the Mean ΔIOP. Other animals were removed from the study and euthanized.

[4] = tested on: optic nerve; assay: Optic nerve injury grading (toluidine blue cross-sections, Grade 1-5) in rat OHT model; assay type: in vivo, Brown Norway rats (Rattus norvegicus); conditions: for Mean ON Injury Grade (Mean±SD), Non-OHT (control) eyes / Mean ON Injury Grade (Mean±SD), OHT optic nerves: grade scale 1-5; for Mean ON Injury Grade (Mean±SD), OHT optic nerves: vehicle 3.0±1.6
Experimental: Animals were euthanized 5 weeks after the 2nd HSI. The retinas were flat-mounted, slide IDs were masked and 8 regions per retina were imaged using a confocal microscope. RGC at these regions were counted using the Image J software. After the optic nerves were extracted, they were plastic-embedded, sectioned and stained with Toluidine Blue at Schepens Eye Research Institute, Boston, Mass.. The injury in the optic nerves was evaluated and graded by microscopic examination in a masked fashion. The eyes were immediately enucleated with the optic nerve attached. An approximately 2.0 mm piece of the ON proximal to the globe is separated and labeled with tissue mark to indicate the orientation of the nerve. The ON piece is placed in Modified Karnovsky's Fixative in 0.1 M Na cacodylate buffer and kept at 4±2° C. overnight. The next day ON piece was washed at least three times for at least 10 minutes each in 0.1 M Na cacodylate buffer and stored in 0.1 M Na cacodylate buffer at 4±2° C. After specimens were transferred to a contracted processing facility, within a week, the optic nerves were processed for plastic embedding: After post-fixation in 2% osmium tetroxide in 0.1 M Na cacodylate buffer for at least 1.5 hours, ONs were dehydrated in graded ethanols, transitioned in propylene oxide and infiltrated with propylene oxide and epon mixtures. One to five (1-5) μm-thick cross-sections were taken via a microtome at the ON end approximately 2.0 mm away from the globe. ON sections were stained with 1% toluidine blue and cover-slipped. The processed specimens were returned. The identification of the ONs were masked prior to injury analysis. The ON cross-sections were analyzed for injury by light microscopy as follows: The damaging effect of the sustained IOP elevation was assessed by qualitative microscopic analysis of the ON cross-sections using a well-established grading system described in Table 9. This method allowed damage analysis of the entire retinal ganglion cell output (the ON) in one section by light microscopy and was more sensitive than counting total axons especially if there is mild nerve damage. […] The extent of injury was then graded by light microscopy based on a pattern of damage observed in rats with elevated IOP. [table] The damaging effect of the sustained IOP elevation was assessed by qualitative microscopic analysis of the ON cross-sections using a well-established grading system described in Table 9. This method allowed damage analysis of the entire retinal ganglion cell output (the ON) in one section by light microscopy and was more sensitive than counting total axons especially if there is mild nerve damage. […] The extent of injury was then graded by light microscopy based on a pattern of damage observed in rats with elevated IOP.

[5] = Group 4, topical 0.25% laquinimod

In the case of `CCN(C(=O)c1c(O)c2c(Cl)cccc2n(C)c1=O)c1ccccc1` [Laquinimod], the “Th1 to Th2 shift” value [1] is given as “causes a Th1”, the “suppression of genes related to antigen presentation and corresponding inflammatory pathways” value [2] is given as “induced suppression” and the “Mean ΔIOP (OHT minus Non-OHT) (Mean±SD)” value ([3]; Group 1, topical 1% laquinimod) is given as 9.1±2.2 mmHg. The “Mean ΔIOP (OHT minus Non-OHT) (Mean±SD)” value ([3]; Group 3, topical 4% laquinimod) was 9.3±2.7 mmHg, the “Mean ΔIOP (OHT minus Non-OHT) (Mean±SD)” value [3, 5] was 9.2±1.5 mmHg and the “Mean ΔIOP (OHT minus Non-OHT) (Mean±SD)” value ([3]; Group 5, oral 0.1% laquinimod) was 9.1±2.9 mmHg. The “Mean ON Injury Grade (Mean±SD), Non-OHT (control) eyes” value ([4]; Group 1, topical 1% laquinimod (left eye dosed only)) was 1.1±0.1, the “Mean ON Injury Grade (Mean±SD), OHT optic nerves” value ([4]; Group 1, topical 1% laquinimod) was 2.5±1.3 and the “Mean ON Injury Grade (Mean±SD), Non-OHT (control) eyes” value ([4]; Group 3, topical 4% laquinimod (left eye dosed only)) was 1.2±0.2. The “Mean ON Injury Grade (Mean±SD), OHT optic nerves” value ([4]; Group 3, topical 4% laquinimod) was 3.0±1.5, the “Mean ON Injury Grade (Mean±SD), Non-OHT (control) eyes” value ([4]; Group 4, topical 0.25% laquinimod (left eye dosed only)) was 1.2±0.3 and the “Mean ON Injury Grade (Mean±SD), OHT optic nerves” value [4, 5] was 2.8±1.3. For the same molecule, the “Mean ON Injury Grade (Mean±SD), Non-OHT (control) eyes” value ([4]; Group 5, oral 0.1% laquinimod) was 1.2±0.2, the “Mean ON Injury Grade (Mean±SD), OHT optic nerves” value ([4]; Group 5, oral 0.1% laquinimod) was 2.7±1.5 and the “Mean ON injury grades, OHT eyes compared to Non-OHT control eyes, two-tailed paired-t tests” value ([4]; all groups, P<0.05) was “significantly greater in the OHT eyes”. The “Mean ON injury grades in OHT and Non-OHT eyes versus groups, Two-Way ANOVA eye versus group interaction” value ([4]; all groups, P=0.98) was “groups did not differ”.
